#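 1) Cells in 96-well plates. 2) Compound, 48 h, 5 concentrations. 3) Linear interpolation between surrounding doses. 4) Unreached endpoint = highest concentration. GI50 = concentration required for 50% inhibition of growth.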 Activity calls are given as the source filed them. Rule as the data show it: active = GI50 up to about 1.1 µM and inactive = higher.
# Columns and labels:
# Test in all cases: NCI tumour cell line growth inhibition, 48 h
# SK-MEL-2 = system: SK-MEL-2
# MCF7 = system: MCF7
# BT-549 = system: BT-549
# M14 = system: M14
# HL-60 = system: HL-60
# TK-10 = system: TK-10
# M19-MEL = system: M19-MEL
# SF-268 = system: SF-268
# HT-29 = system: HT-29
# EKVX = system: EKVX
# UACC-62 = system: UACC-62
# OVCAR-8 = system: OVCAR-8
# SN12C = system: SN12C
# RXF 393 = system: RXF 393
# UO-31 = system: UO-31
# COLO 205 = system: COLO 205
# IGROV-1 = system: IGROV-1
# HCT-15 = system: HCT-15
# T47D = system: T47D
# HOP-92 = system: HOP-92
Structure (SMILES),GI50 (SK-MEL-2),GI50 (MCF7),GI50 (BT-549),GI50 (M14),GI50 (HL-60),GI50 (TK-10),GI50 (M19-MEL),GI50 (SF-268),GI50 (HT-29),GI50 (EKVX),GI50 (UACC-62),GI50 (OVCAR-8),GI50 (SN12C),GI50 (RXF 393),GI50 (UO-31),GI50 (COLO 205),GI50 (IGROV-1),GI50 (HCT-15),GI50 (T47D),GI50 (HOP-92)
O=C1C(CO)=C(CO)C(=O)c2c(O)ccc(O)c21,1050 nM (active),118 nM (active),204 nM (active),143 nM (active),43 nM (active),352 nM (active),71.9 nM (active),649 nM (active),105 nM (active),2250 nM (inactive),782 nM (active),942 nM (active),287 nM (active),390 nM (active),1000 nM (active),40.8 nM (active),1680 nM (inactive),214 nM,363 nM (active),261 nM (active)
COc1cc2[nH]c3c(c2cc1OC)CCN[C@@]31CC[C@@]2(CC3c4c(cc(OC)c(O)c42)CCN3C)C[C@@H]1OC (stereo partly drawn),17800 nM (inactive),> 68200 nM (inactive),25200 nM (inactive),18000 nM (inactive),16300 nM (inactive),29800 nM (inactive),19400 nM (inactive),47100 nM (inactive),26200 nM (inactive),36400 nM (inactive),22900 nM (inactive),30900 nM (inactive),71900 nM (inactive),21000 nM (inactive),20600 nM (inactive),16600 nM (inactive),66100 nM (inactive),30300 nM,20500 nM (inactive),22200 nM (inactive)
CC[C@](O)(C(=O)O)c1cc2n(c(=O)c1CO)Cc1cc3ccccc3nc1-2,230 nM (active),61 nM (active),79.1 nM (active),2.92 nM (active),25 nM (active),282 nM (active),33.6 nM (active),–,46.1 nM (active),37.1 nM (active),25 nM (active),–,25 nM (active),38.4 nM (active),37.2 nM (active),234 nM (active),65.2 nM (active),96.4 nM,32.4 nM (active),112 nM (active)

# Source: ChEMBL document CHEMBL1201862, “PubChem BioAssay data set” (2004)
